Source: US5714488A, “Bis-heteroarylylmethoxyphenyl ketone derivatives as inhibitors of leukotriene biosynthesis” (Abbott Laboratories, priority 1996, dated 1998)
pIC50: −log10 of the molar value. Structures can show the parent of a compound that is named as a salt.

Tests used:
5-Lipoxygenase = test: Inhibition of calcium ionophore-induced LTB4 formation in human polymorphonuclear leukocytes (PMNL); type: cell-based; details: 15 min preincubation, calcium ionophore 8.3 μM, 10 min at 37° C., LTB4 by enzyme-linked immunoassay or HPLC, read-out: IC50 (In Vitro Inhibitory Potencies Against 5-Lipoxygenase From Stimulated LTB4 Formation in Human Polymorphonuclear Leukocytes)
Procedure: Inhibition of leukotriene biosynthesis was evaluated in vitro using an assay involving calcium ionophore-induced LTB4 expressed in human polymorphornuclear leukocytes (PMNL). Human PMNL isolated from heparinized (20 USP units/mL) venous blood (25 mL) obtained from healthy volunteers was layered over an equal volume of Ficoll-Hypaque Mono-Poly Resolving Medium (ICN Flow, Costa Mesa, CA) and centrifugated at 400×g for 40 minutes at 20° C. The PMNL was collected, erythrocytes lysed and washed 2× and suspended at 1.0×10^7 cells/mL in Earle's balanced salt solution with 17 mM Earle's HEPES. Aliquots of the cell suspension were preincubated with test compounds dissolved in DMSO (final concentration <2%) for 15 minutes and stimulated with calcium ionophore (final concentration 8.3 μM) for 10 min. at 37° C. Incubations were stopped with the addition of two volumes of ice-cold methanol followed by centrifuging the cell suspensions at 4° C. for 10 minutes at 450×g. The amount of LTB4 in the methanol extract was analyzed by enzyme-linked immunoassay or by HPLC analysis.

leukotriene biosynthesis = test: In vivo leukotriene inhibition, Ionophore A23187-Induced Rat Pleural Inflammation Model; details: 3.O mg/kg; male rats; dosed in 0.2% methocel one hour prior to intrapleural A23187 (20 μg); lavage after thirty minutes
Procedure: Inhibition of leukotriene biosynthesis in vivo was evaluated using the Ionophore A23187-Induced Rat Pleural Inflammation Model. Pleural inflammation was induced in male rats following the method of Rao, et al. (Rao, T. S., Currie, J. L., Shaffer, A. F., Isakson, P. C., Evaluation of 5-lipoxygenase Inhibitors, Zileuton, A-78773 and ICI D-2138 in an Ionophore (A-23187) Induced Pleural Inflammation Model in the Rat, Life Sciences, 53, 147 (1993)). Rats were dosed with experimental compounds in 0.2% methocel one hour prior to the intrapleural injection of the calcium ionophore, A23187. The rats where lightly anesthetized with Pentrane (Abbott Laboratories) and injected intrapleurally with 0.5 ml of 2% ethanol in injectable saline (Abbott Laboratories) containing 20 μg of A23187 (Cal BioChem-Novabiochem). Thirty minutes later the animals were euthanised and the pleural cavities lavaged with ice cold saline (Abbott Laboratories). The lavage fluid was then added to ice cold methanol (final methanol concentration 30%) to lyse cells and precipitate protein. Eicosanoids were determined by enzyme immunoassay by standard methods.

pIC50 (5-Lipoxygenase) | Structure (SMILES) | % Inhibition (In Vivo Leukotriene Inhibition in Rat Pleural Inflammation) (leukotriene biosynthesis) [%]
6.66 | O=C(O)CON=C(c1ccc(OCc2ccc3ccc(Cl)cc3n2)cc1)c1ccc(OCc2ccc3ccc(Cl)cc3n2)cc1 [Example 6, bis(4-(7-chloro-2-quinolylmethoxy)phenyl)methyloximinoaceticacid] | –
7.49 | O=C(O)CON=C(c1ccc(OCc2ccc3ccccc3n2)cc1)c1ccc(OCc2ccc3ccccc3n2)cc1 [Example 1, bis(4-(2-quinolylmethoxy)phenyl)methyloximinoacetic acid] | –
7.40 | O=C(O)CON=C(c1ccc(OCc2nc3ccccc3s2)cc1)c1ccc(OCc2nc3ccccc3s2)cc1 [Example 9, bis(4-(2-benzothiazoylmethoxy)-phenyl)methyloximinoacetic acid sodium salt] | –
7.30 | O=C(O)C=C(c1ccc(OCc2ccc3ccccc3n2)cc1)c1ccc(OCc2ccc3ccccc3n2)cc1 [Example 11] | –
7.59 | O=C(O)CON=CC=C(c1ccc(OCc2ccc3ccccc3n2)cc1)c1ccc(OCc2ccc3ccccc3n2)cc1 [Example 12] | 60

Structure (SMILES) | pIC50 (5-Lipoxygenase) | % Inhibition (In Vivo Leukotriene Inhibition in Rat Pleural Inflammation) (leukotriene biosynthesis) [%]
ON=C(c1ccc(OCc2ccc3ccccc3n2)cc1)c1ccc(OCc2ccc3ccccc3n2)cc1 [Example 2, bis(4-(2-quinolylmethoxy)phenyl) ketoxime] | 7.40 | –
